Data: ChEMBL document CHEMBL1275601, “Striking species difference in the contribution of concentrative nucleoside transporter 2 to nucleoside uptake between mouse and rat hepatocytes” (Antimicrob Agents Chemother, 2010)
Active and inactive are the calls of the source. The calls are words filed in the database; no cut-off is given here.

Tests used:
Format in all cases: cell-based
Conditions in all cases: Hepatocyte
[1] = target: T1, Sodium/nucleoside cotransporter 1 (Rattus norvegicus) (UniProt Q62674); assay: Transport through CNT1 in rat hepatocytes by oil filtration assay in presence of sodium ions in Kreb-henseleit buffer containing 100 uM NBMPR and 1 mM uridine
T1 sequence (whole entry): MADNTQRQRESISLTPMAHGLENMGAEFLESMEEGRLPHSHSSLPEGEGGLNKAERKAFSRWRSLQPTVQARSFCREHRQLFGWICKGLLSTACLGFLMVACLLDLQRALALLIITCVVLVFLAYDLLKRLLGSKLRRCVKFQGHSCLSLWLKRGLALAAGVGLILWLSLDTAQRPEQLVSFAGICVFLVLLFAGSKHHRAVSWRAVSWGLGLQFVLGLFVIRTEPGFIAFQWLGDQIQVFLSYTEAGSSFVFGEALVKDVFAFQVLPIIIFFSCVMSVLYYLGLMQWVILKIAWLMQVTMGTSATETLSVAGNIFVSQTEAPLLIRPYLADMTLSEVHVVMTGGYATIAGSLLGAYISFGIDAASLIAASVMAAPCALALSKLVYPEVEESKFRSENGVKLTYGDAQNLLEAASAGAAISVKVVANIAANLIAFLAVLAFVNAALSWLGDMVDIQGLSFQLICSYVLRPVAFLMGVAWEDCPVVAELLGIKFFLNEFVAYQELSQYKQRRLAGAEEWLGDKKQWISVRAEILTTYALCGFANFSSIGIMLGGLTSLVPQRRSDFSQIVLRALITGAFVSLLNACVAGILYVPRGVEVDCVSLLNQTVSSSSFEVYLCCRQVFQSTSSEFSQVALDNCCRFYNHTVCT

[2] = target: T2, Sodium/nucleoside cotransporter 2 (Mus musculus) (UniProt O88627); assay: Transport through CNT2 in mouse hepatocytes by oil filtration assay pre-incubated with 20 ng/mL rotenone for 15 mins and 2 mM 2-deoxyglucose for 10 mins at 37 degC in presence of sodium ions in Kreb-henseleit buffer containing 100 nM NBMPR
T2 sequence (whole entry): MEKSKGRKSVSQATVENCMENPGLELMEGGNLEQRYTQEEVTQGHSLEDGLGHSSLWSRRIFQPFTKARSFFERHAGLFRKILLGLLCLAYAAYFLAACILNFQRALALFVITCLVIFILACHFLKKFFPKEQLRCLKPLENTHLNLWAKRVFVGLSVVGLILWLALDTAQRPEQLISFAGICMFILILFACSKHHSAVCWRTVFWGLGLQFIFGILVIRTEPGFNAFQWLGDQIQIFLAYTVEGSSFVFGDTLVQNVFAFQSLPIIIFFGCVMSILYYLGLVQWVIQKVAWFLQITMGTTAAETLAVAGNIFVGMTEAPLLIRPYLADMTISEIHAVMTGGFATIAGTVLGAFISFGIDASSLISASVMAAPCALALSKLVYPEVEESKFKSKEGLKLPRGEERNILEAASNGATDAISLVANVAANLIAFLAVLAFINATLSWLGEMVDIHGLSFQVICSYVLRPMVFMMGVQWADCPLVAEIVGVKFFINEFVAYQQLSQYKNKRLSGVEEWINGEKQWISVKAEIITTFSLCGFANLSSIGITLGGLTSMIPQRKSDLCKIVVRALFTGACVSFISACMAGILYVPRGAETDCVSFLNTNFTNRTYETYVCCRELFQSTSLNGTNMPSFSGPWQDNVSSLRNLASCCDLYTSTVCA

[3] = target: T3, Sodium/nucleoside cotransporter 2 (Rattus norvegicus) (UniProt Q62773); assay: Transport through CNT2 in rat hepatocytes by oil filtration assay pre-incubated with 20 ng/mL rotenone for 15 mins and 2 mM 2-deoxyglucose for 10 mins at 37 degC in presence of sodium ions in Kreb-henseleit buffer containing 100 nM NBMPR
T3 sequence (whole entry): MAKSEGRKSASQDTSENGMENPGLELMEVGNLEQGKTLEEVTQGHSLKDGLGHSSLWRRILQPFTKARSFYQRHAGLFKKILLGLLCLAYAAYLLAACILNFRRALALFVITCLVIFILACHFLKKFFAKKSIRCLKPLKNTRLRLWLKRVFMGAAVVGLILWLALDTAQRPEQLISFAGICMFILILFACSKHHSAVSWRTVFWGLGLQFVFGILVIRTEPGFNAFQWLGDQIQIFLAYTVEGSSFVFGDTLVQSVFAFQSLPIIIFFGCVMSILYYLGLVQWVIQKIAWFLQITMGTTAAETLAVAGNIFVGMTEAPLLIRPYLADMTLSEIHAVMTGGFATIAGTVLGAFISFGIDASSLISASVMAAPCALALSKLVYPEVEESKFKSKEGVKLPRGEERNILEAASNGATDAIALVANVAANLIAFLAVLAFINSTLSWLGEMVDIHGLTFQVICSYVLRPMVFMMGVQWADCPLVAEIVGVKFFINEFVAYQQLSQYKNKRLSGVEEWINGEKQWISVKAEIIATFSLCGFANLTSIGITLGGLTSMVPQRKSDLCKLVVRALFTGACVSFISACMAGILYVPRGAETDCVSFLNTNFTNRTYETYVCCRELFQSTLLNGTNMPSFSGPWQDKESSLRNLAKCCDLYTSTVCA

[4] = target: T2, Sodium/nucleoside cotransporter 2 (Mus musculus); assay: Transport through CNT2 in mouse hepatocytes by oil filtration assay pre-incubated with 20 ng/mL rotenone for 15 mins and 2 mM 2-deoxyglucose for 10 mins at 37 degC in Kreb-henseleit buffer
[5] = target: T3, Sodium/nucleoside cotransporter 2 (Rattus norvegicus); assay: Transport through CNT2 in rat hepatocytes by oil filtration assay pre-incubated with 20 ng/mL rotenone for 15 mins and 2 mM 2-deoxyglucose for 10 mins at 37 degC in Kreb-henseleit buffer

SMILES | Activity [1] | Activity [2] | Activity [3] | Activity [4] | Activity [5]
Nc1ncnc2c1ncn2[C@@H]1O[C@H](CO)[C@@H](O)[C@H]1O | inactive |  |  |  | 
NC(=O)c1ncn([C@@H]2O[C@H](CO)[C@@H](O)[C@H]2O)n1 | inactive | Active | Active | Active | Active
